Results as given in patent US7892350B2, “Sacrificial agents for fly ash concrete” (Boral Material Technologies Inc., priority 2003, dated 2011).

Key:
[1] = Adsorption/precipitation of SA or AEA in 10 wt % aqueous fly ash or cement slurries at pH 12.5; assay type: physicochemical; details: initial SA 3 mM
Protocol: Adsorption/Precipitation of Sacrificial Agents (SA) or Air Entrainment Agents (AEA) in 10 wt % Aqueous Fly Ash Slurries at pH 12.5:
(§1) The pH of the solutions were adjusted to 12.5 with NaOH.
Adsorption/Precipitation in FA or Cement Slurries: In this protocol, aqueous slurries containing 10 wt % FA or cement were prepared as described above, except that in this case, the cement was added directly into a solution of the SA or AEA in the following proportions: 3.0 g cement or FA, and 27 g of 3 mM sacrificial agent, or 27 g of 1050 mg/l AEA; the latter were prepared in the same way as in the precipitation test above. The residual (soluble) SA or AEA content in the solution was also determined by UV or COD.

[2] = Precipitation in slurry extract or leachate; assay type: physicochemical; details: pH 12.5, entries in parentheses
Protocol: as §1
Precipitation in slurry extract or leachate: To perform this test, FA or cement leachate were prepared in advance, by filtering two liters of a 10 wt % FA, or cement, slurry in 0.03N NaOH which had been left to stand under slow agitation for 30 min; 2.5 g of the filtrate solution was mixed with 22.5 g of the SA or AEA solution in a 50 ml polypropylene centrifuge tube; the latter was shaken vigorously in an orbital shaker (Eberbach Corporation) for 30 min at room temperature, centrifuged for 5 min and then the supernatant solution was filtered (0.45 μm). The SA or AEA content of the solution was determined using an Ultraviolet-Visible (UV) spectrometer or by COD (Chemical Oxygen Demand) measurement.
Entries in parentheses: % precipitation when reacted with solutions extracted from the fly ash slurries (Results in Table 5).

[3] = Paste air entrainment, Minimum air protocol
Protocol: (§2) Preparation of pastes: Pastes were prepared by pouring 400 g of cementitious powder in the 350-400 g of solution (water and additives) in a vessel (8.4 cm dia,×14.5 cm height) while gently stirring with a spatula; the exact quantity of water depends on the selected W/B ratio (see below); rapid hand mixing was continued for 1 minute, followed by intense stirring at 25° C. during 2 min using a hand-held mixer (BRAUN model MR400). The level of air entrained is dependent on the mode of utilisation of the mixer, namely the height of the mixer from the bottom of the vessel and the length of the mixing stroke; the following protocols were adopted.
Minimum air protocol: The BRAUN mixer is positioned at 1.0 inch from the bottom of the mixing vessel and the up-down motion of the mixer is limited to a 1.0 inch displacement; this provided ‘minimum air’ entrained air levels and is later referred to as ‘Minimum air protocol’ (Results reported in Table 6, col. 1 and Table 7).
(§3) Fluidity measurements: For all air entrainment measurements, the initial fluidity of the paste (without additives) was controlled using the ‘mini-slump’ procedure widely used for paste and grouts. In this protocol, a portion of the paste was transferred into the min-slump cone (a 2¼″ high, 1½″ bottom diameter, ¾″ top diameter cone); excess paste was skimmed-off with a straight; the cone was then raised and the spread diameter of the paste was recorded (average of two measurements). The fluidity is measured at 10 minutes after mixing. The paste is returned to the batch and reserved for subsequent AE measurements. The fluidity of the paste (without SA and AEA) is adjusted by changing the amount of water (water/cementitious ratio) which yields a spread diameter of 115±5 mm. The latter is monitored regularly.
(§4) Air entrainment measurements: For air entrainment measurements, a portion of the paste was transferred to overfill a Plexiglas cylinder (3¾ inches height, 2 inches interior diameter), which was then levelled flush to the top of the cylinder with a straight edge. The mass of the filled cylinder, minus the weight of the empty cylinder, is then recorded and used to calculate the amount of air according to the following formula: […]
(§5) This procedure was carried out at three times at 30 min. intervals (6, 36 and 66 min); the paste was let to stand at rest between measurements, and was stirred gently by hand for one minute prior to the subsequent air entrainment measurements.
Typical mixture compositions for air entrainment measurements in pastes containing a single additive using ‘Minimum air protocol’ (results shown in Table 6, col. 1): […]

[4] = Paste air entrainment, Maximum air protocol; details: for Air entrained at 66 min: Air 30 (0.0125 wt %)/X/ButOH=1/4/4, X = the labelled sulfonated SA
Protocol: as §2, §3, §4, §5
Other combinations of air entrainment agents and sacrificial agents were prepared as stock solutions following the procedure outlined above, adjusting the weights of the various components to achieve the desired component ratios.

Q: With `O=S(=O)([O-])c1ccc2ccccc2c1.[Na+]` [NS, Sodium 2-Naphthalene sulfonate] as the molecule, how does the “Adsorption (wt % Adsorbed)” value ([1]; 10 wt % PCA cement slurry, Air 30/Air 40 0.105 wt %) read?
A: 3 wt %

Q: What about the “Adsorption (wt % Adsorbed)” value ([1]; 10 wt % fly ash B1 (LOI 4.36%) slurry, Air 30/Air 40 0.105 wt %) of the same molecule?
A: 8 wt %

Q: And the “Adsorption (wt % Adsorbed)” value ([1]; 10 wt % fly ash C1, class C (LOI 1.62%) slurry, Air 30/Air 40 0.105 wt %)?
A: 70 wt %

Q: And the “Adsorption (wt % Adsorbed)” value ([1]; 10 wt % fly ash C2 (LOI 3.32%) slurry)?
A: 5 wt %

Q: What about the “Adsorption (wt % Adsorbed)” value ([1]; 10 wt % fly ash D, class C (LOI […]) slurry, Air 30/Air 40 0.105 wt %) of the same molecule?
A: 59 wt %

Q: And the “Adsorption (wt % Adsorbed)” value ([1]; 10 wt % fly ash M1 (LOI […]) slurry, Air 30/Air 40 0.105 wt %)?
A: 11 wt %

Q: And the “Adsorption (wt % Adsorbed)” value ([1]; 10 wt % fly ash M2 (LOI 5.34%) slurry, Air 30/Air 40 0.105 wt %)?
A: 8 wt %

Q: What about the “Adsorption (wt % Adsorbed)” value ([1]; 10 wt % fly ash M3 (LOI 11.33%) slurry, Air 30/Air 40 0.105 wt %) of the same molecule?
A: 10 wt %

Q: And the “Adsorption (wt % Adsorbed)” value ([1]; 10 wt % fly ash N (LOI 0.30%) slurry)?
A: 5 wt %

Q: What about the “Adsorption (wt % Adsorbed)” value ([1]; 10 wt % fly ash R (LOI […]) slurry, Air 30/Air 40 0.105 wt %) of the same molecule?
A: 24 wt %

Q: And the “Precipitation (wt % precipitated)” value ([2]; solution extracted from 10 wt % PCA cement slurry)?
A: 1 wt %

Q: And the “Precipitation (wt % precipitated)” value ([2]; solution extracted from 10 wt % fly ash B1 (LOI 4.36%) slurry)?
A: 0 wt %

Q: And the “Precipitation (wt % precipitated)” value ([2]; solution extracted from 10 wt % fly ash C1, class C (LOI 1.62%) slurry)?
A: 10 wt %

Q: What about the “Precipitation (wt % precipitated)” value ([2]; solution extracted from 10 wt % fly ash C2 (LOI 3.32%) slurry) of the same molecule?
A: 0 wt %

Q: What about the “Precipitation (wt % precipitated)” value ([2]; solution extracted from 10 wt % fly ash D, class C (LOI […]) slurry) of the same molecule?
A: 1 wt %

Q: And the “Precipitation (wt % precipitated)” value ([2]; solution extracted from 10 wt % fly ash M1 (LOI […]) slurry)?
A: 0 wt %

Q: And the “Precipitation (wt % precipitated)” value ([2]; solution extracted from 10 wt % fly ash M2 (LOI 5.34%) slurry)?
A: 0 wt %

Q: And the “Precipitation (wt % precipitated)” value ([2]; solution extracted from 10 wt % fly ash M3 (LOI 11.33%) slurry)?
A: 0 wt %

Q: And the “Precipitation (wt % precipitated)” value ([2]; solution extracted from 10 wt % fly ash N (LOI 0.30%) slurry)?
A: 0 wt %

Q: And the “Precipitation (wt % precipitated)” value ([2]; solution extracted from 10 wt % fly ash R (LOI […]) slurry)?
A: 0 wt %

Q: And the Air entrained ([3]; 50:50 fly ash B1 (LOI 4.36%):PCA paste, 0.1 wt % Air 30 alone or with 0.05 wt % of the SA)?
A: 4 vol %

Q: What about the Air entrained ([3]; 50:50 fly ash C1 (LOI 1.62%):PCA paste, 0.1 wt % Air 30 alone or with 0.05 wt % of the SA) of the same molecule?
A: 12 vol %

Q: And the Air entrained ([3]; 50:50 fly ash D (LOI […]):PCA paste, 0.1 wt % Air 30 alone or with 0.05 wt % of the SA)?
A: 6 vol %

Q: And the Air entrained ([3]; 50:50 fly ash M1 (LOI […]):PCA paste, 0.1 wt % Air 30 alone or with 0.05 wt % of the SA)?
A: 4 vol %

Q: And the Air entrained ([3]; 50:50 fly ash M2 (LOI 5.34%):PCA paste, 0.1 wt % Air 30 alone or with 0.05 wt % of the SA)?
A: 3 vol %

Q: And the Air entrained ([3]; 50:50 fly ash M3 (LOI 11.33%):PCA paste, 0.1 wt % Air 30 alone or with 0.05 wt % of the SA)?
A: 4 vol %

Q: And the Air entrained ([3]; 50:50 fly ash R (LOI […]):PCA paste, 0.1 wt % Air 30 alone or with 0.05 wt % of the SA)?
A: 6 vol %

Q: What about the Air entrained ([3]; PCA cement paste, 0.1% SA or AEA alone, Minimum air protocol) of the same molecule?
A: 0 vol %

Q: What about the “Average of air entrained” value ([3]; over the fly ash:PCA pastes of Table 7, 0.1 wt % Air 30 alone or with 0.05 wt % of the SA) of the same molecule?
A: 5%

Q: What about the “Air entrained at 66 min” value ([4]; 50:50 fly ash B1 (LOI 4.36%):PCA paste) of the same molecule?
A: 7 vol %

Q: What about the “Air entrained at 66 min” value ([4]; 50:50 fly ash D (LOI […]):PCA paste) of the same molecule?
A: 18 vol %

Q: What about the “Air entrained at 66 min” value ([4]; 50:50 fly ash M2 (LOI 5.34%):PCA paste) of the same molecule?
A: 5 vol %

Q: And the Air entrained ([4]; PCA cement paste, 0.0125% SA or AEA alone, Maximum air protocol)?
A: 2 vol %

Q: What about the “Air entrained at 66 min” value ([4]; PCA paste, no fly ash) of the same molecule?
A: 13 vol %
